From patent US20110118298A1, “COMPOSITIONS, KITS, AND METHODS FOR IDENTIFICATION, ASSESSMENT, PREVENTION, AND THERAPY OF CANCER” (INFINITY PHARMACEUTICALS, INC., priority 2009, published 2011)
Entries after “also recorded” stand apart in the source; their conditions may differ. Counter-ions that a name gives are not always drawn.

Assays:
[1] = Phase II study of IPI-504 monotherapy in advanced NSCLC: adverse events and laboratory abnormalities; assay type: in vivo, human
Method: Treatment consisted of a 30-minute infusion of intravenous IPI-504 on days 1, 4, 8 and 11 of a 21-day cycle. Therapy continued until progressive disease (PD), intolerable side effects, or elective withdrawal. A total of 76 patients were enrolled. The starting dose was 400 mg/m^2 for 75 patients. In April 2009, the dose for patients who were on study (19 patients) was lowered to 225 mg/m^2, due to hepatotoxicities observed at the 400 mg/m^2 dose in a separate trial of IPI-504 in patients with gastrointestinal stromal tumors (GIST) (Demetri G. D. et al. Final results from a phase III study of IPI-504 (retaspimycin hydrochloride) versus placebo in patients with gastrointestinal stromal tumors (GIST) following failure of kinase inhibitor therapies. Paper presented at: Gastrointestinal Cancers Symposium; Jan. 22-24, 2010, 2010; Orlando, Fla.), and the last enrolled patient started at a dose of 225 mg/m^2.
All patients were assessed for safety by history, physical examination, blood chemistries, liver function tests and blood counts, at baseline and prior to each infusion. Amylase and lipase were assessed if there were symptoms of pancreatitis. Adverse events were graded using the NCl common toxicity criteria version 3.0 (NCl. Common terminology criteria for adverse events (CTCAE) version 3.0 Aug. 9, 2006). Slit lamp eye examinations were performed during screening and electrocardiograms were obtained during screening and before and after the first infusion, to evaluate for keratitis and QTc prolongation, respectively. Radiographic evaluation of tumor response by CT-scan was performed after every 2 cycles. All films were reviewed and independently assessed by a central radiology core laboratory.
Summary statistics were used to describe safety and included all patients treated with IPI-504. PFS was defined as the time from enrollment to progressive disease or death, censored at the last known follow-up, and was calculated with the Kaplan-Meier method, following the intent-to-treat principle.

EML4-ALK = experiment: H3122 xenograft, PD time course by ALK specific ELISA; assay type: in vivo, nude mice; conditions: single injection of IPI-504 (100 mg/kg), tumors
Method: FIGS. 12A-12B depict a PD time course after IPI-504 treatment. After a single injection of 100 mg/kg IPI-504 tumors were collected at various times and ALK (FIG. 12A) and cleaved PARP (FIG. 12B) levels were monitored using ELISA and immunoblotting respectively.
Consistent with this, the responses to Hsp90 inhibitors in the clinic have so far mostly consisted of induction of stable disease. […] H3122 cells were injected into the flanks of nude mice and animals were treated with 75 mg/kg of IPI-504 twice weekly. […] To confirm degradation of EML4-ALK within these tumors, a separate arm was included in the study where tumors were harvested at different time points after a single injection of IPI-504 and the abundance of the fusion protein over time was monitored using an ALK specific ELISA (FIG. 12A). […] The depletion of EML4-ALK coincides with the appearance of PARP cleavage, an indication of caspase 3 activation and the induction of apoptosis (FIG. 12B).

H3122R cells = experiment: Growth inhibition of cells selected for resistance to PF-1066; assay type: cell-based, human
[2] = system: EGFR mutant tumors with T790M resistant clones; experiment: In vivo model of emerging EGFR TKI resistance (T790M)
[3] = maximum post-baseline grade based on laboratory values

C=CCNc1c(O)cc2c(O)c1C[C@@H](C)C[C@H](OC)[C@H](O)[C@@H](C)/C=C(\C)[C@H](OC(N)=O)[C@@H](OC)/C=C\C=C(/C)C(=O)N2 [IPI-504, retaspimycin hydrochloride]
Abdominal pain: patients with Grade 1 or 2 event ([1]; 76 patients): 18 (23.7) n (%) | Abdominal pain: patients with any event ([1]; 76 patients): 18 (23.7) n (%) | Abdominal pain: patients with ≧Grade 3 event ([1]; 76 patients): 1 (1.3) n (%) | Anorexia: patients with Grade 1 or 2 event ([1]; 76 patients): 18 (23.7) n (%) | Anorexia: patients with any event ([1]; 76 patients): 19 (25.0) n (%) | Anorexia: patients with ≧Grade 3 event ([1]; 76 patients): 4 (5.3) n (%) | Arthralgia: patients with Grade 1 or 2 event ([1]; 76 patients): 17 (22.4) n (%) | Arthralgia: patients with any event ([1]; 76 patients): 19 (25.0) n (%) | Arthralgia: patients with ≧Grade 3 event ([1]; 76 patients): 2 (2.6) n (%) | Back pain: patients with Grade 1 or 2 event ([1]; 76 patients): 16 (21.1) n (%) | Back pain: patients with any event ([1]; 76 patients): 16 (21.1) n (%) | Back pain: patients with ≧Grade 3 event ([1]; 76 patients): 0 (0.0) n (%) | Constipation: patients with Grade 1 or 2 event ([1]; 76 patients): 18 (23.7) n (%) | Constipation: patients with any event ([1]; 76 patients): 18 (23.7) n (%) | Constipation: patients with ≧Grade 3 event ([1]; 76 patients): 2 (2.6) n (%) | Cough: patients with Grade 1 or 2 event ([1]; 76 patients): 24 (31.6) n (%) | Cough: patients with any event ([1]; 76 patients): 24 (31.6) n (%) | Cough: patients with ≧Grade 3 event ([1]; 76 patients): 2 (2.6) n (%) | Dehydration: patients with Grade 1 or 2 event ([1]; 76 patients): 11 (14.5) n (%) | Dehydration: patients with any event ([1]; 76 patients): 14 (18.4) n (%) | Dehydration: patients with ≧Grade 3 event ([1]; 76 patients): 3 (3.9) n (%) | Diarrhoea: patients with Grade 1 or 2 event ([1]; 76 patients): 37 (48.7) n (%) | Diarrhoea: patients with any event ([1]; 76 patients): 40 (52.6) n (%) | Diarrhoea: patients with ≧Grade 3 event ([1]; 76 patients): 8 (10.5) n (%) | Dizziness: patients with Grade 1 or 2 event ([1]; 76 patients): 12 (15.8) n (%) | Dizziness: patients with any event ([1]; 76 patients): 12 (15.8) n (%) | Dizziness: patients with ≧Grade 3 event ([1]; 76 patients): 0 (0.0) n (%) | Dyspnoea: patients with Grade 1 or 2 event ([1]; 76 patients): 15 (19.7) n (%) | Dyspnoea: patients with any event ([1]; 76 patients): 18 (23.7) n (%) | Dyspnoea: patients with ≧Grade 3 event ([1]; 76 patients): 6 (7.9) n (%) | Fatigue: patients with Grade 1 or 2 event ([1]; 76 patients): 41 (53.9) n (%) | Fatigue: patients with any event ([1]; 76 patients): 44 (57.9) n (%) | Fatigue: patients with ≧Grade 3 event ([1]; 76 patients): 6 (7.9) n (%) | Headache: patients with Grade 1 or 2 event ([1]; 76 patients): 19 (25.0) n (%) | Headache: patients with any event ([1]; 76 patients): 19 (25.0) n (%) | Headache: patients with ≧Grade 3 event ([1]; 76 patients): 0 (0.0) n (%) | Infusion site pain: patients with Grade 1 or 2 event ([1]; 76 patients): 15 (19.7) n (%) | Infusion site pain: patients with any event ([1]; 76 patients): 15 (19.7) n (%) | Infusion site pain: patients with ≧Grade 3 event ([1]; 76 patients): 0 (0.0) n (%) | Insomnia: patients with Grade 1 or 2 event ([1]; 76 patients): 12 (15.8) n (%) | Insomnia: patients with any event ([1]; 76 patients): 12 (15.8) n (%) | Insomnia: patients with ≧Grade 3 event ([1]; 76 patients): 0 (0.0) n (%) | Musculoskeletal chest pain: patients with Grade 1 or 2 event ([1]; 76 patients): 11 (14.5) n (%) | Musculoskeletal chest pain: patients with any event ([1]; 76 patients): 13 (17.1) n (%) | Musculoskeletal chest pain: patients with ≧Grade 3 event ([1]; 76 patients): 3 (3.9) n (%) | Myalgia: patients with Grade 1 or 2 event ([1]; 76 patients): 18 (23.7) n (%) | Myalgia: patients with any event ([1]; 76 patients): 19 (25.0) n (%) | Myalgia: patients with ≧Grade 3 event ([1]; 76 patients): 1 (1.3) n (%) | Nausea: patients with Grade 1 or 2 event ([1]; 76 patients): 41 (53.9) n (%) | Nausea: patients with any event ([1]; 76 patients): 43 (56.6) n (%) | Nausea: patients with ≧Grade 3 event ([1]; 76 patients): 6 (7.9) n (%) | Pyrexia: patients with Grade 1 or 2 event ([1]; 76 patients): 12 (15.8) n (%) | Pyrexia: patients with any event ([1]; 76 patients): 12 (15.8) n (%) | Pyrexia: patients with ≧Grade 3 event ([1]; 76 patients): 0 (0.0) n (%) | Urine colour abnormal: patients with Grade 1 or 2 event ([1]; 76 patients): 22 (28.9) n (%) | Urine colour abnormal: patients with any event ([1]; 76 patients): 22 (28.9) n (%) | Urine colour abnormal: patients with ≧Grade 3 event ([1]; 76 patients): 0 (0.0) n (%) | Vision blurred: patients with Grade 1 or 2 event ([1]; 76 patients): 12 (15.8) n (%) | Vision blurred: patients with any event ([1]; 76 patients): 12 (15.8) n (%) | Vision blurred: patients with ≧Grade 3 event ([1]; 76 patients): 0 (0.0) n (%) | Vomiting: patients with Grade 1 or 2 event ([1]; 76 patients): 25 (32.9) n (%) | Vomiting: patients with any event ([1]; 76 patients): 28 (36.8) n (%) | Vomiting: patients with ≧Grade 3 event ([1]; 76 patients): 6 (7.9) n (%) | deaths on study considered related to study drug ([1]; 76 patients): Three | patients who discontinued therapy for adverse events ([1]; 76 patients): 14% | patients with dose reductions for toxicity ([1]; 76 patients): 12% | bilirubin elevation ([1]; Grade 3 or 4): No Grade 3 or 4 bilirubin elevation | ALT elevations ([1]; Grade 3 or greater): 7% | AST elevations ([1]; Grade 3 or greater): 9% | alkaline phosphatase elevations ([1]; Grade 3 or greater): 5% | tolerability ([1]; IPI-504 monotherapy, hydrochloride): generally well tolerated | alanine aminotransferase (ALT) elevations ([1]; any grade): 41% | alkaline phosphatase elevations ([1]; any grade): 62% | aspartate aminotransferase (AST) elevations ([1]; any grade): 49% | ALT (liver function test): patients with Grade 1 or 2 event [1, 3]: 26 (34.2) n (%) | ALT (liver function test): patients with any event [1, 3]: 31 (40.8) n (%) | ALT (liver function test): patients with ≧Grade 3 event [1, 3]: 5 (6.6) n (%) | AST (liver function test): patients with Grade 1 or 2 event [1, 3]: 30 (39.5) n (%) | AST (liver function test): patients with any event [1, 3]: 37 (48.7) n (%) | AST (liver function test): patients with ≧Grade 3 event [1, 3]: 7 (9.2) n (%) | Alkaline phosphatase (liver function test): patients with Grade 1 or 2 event [1, 3]: 43 (56.6) n (%) | Alkaline phosphatase (liver function test): patients with any event [1, 3]: 47 (61.8) n (%) | Alkaline phosphatase (liver function test): patients with ≧Grade 3 event [1, 3]: 4 (5.3) n (%) | Total bilirubin (liver function test): patients with Grade 1 or 2 event [1, 3]: 3 (3.9) n (%) | Total bilirubin (liver function test): patients with any event [1, 3]: 3 (3.9) n (%) | Total bilirubin (liver function test): patients with ≧Grade 3 event [1, 3]: 0 (0.0) n (%) | transient, non-toxic purple-colored urine ([1]; share of patients): About a third | time ALK fusion protein is depleted after a single injection (EML4-ALK): more than 48 h | GI50 (H3122R cells; Homo sapiens, NCI-H3122, read-out: Res. H3122 (GI50, nM)): 76 nM | sensitivity of H3122R cells (H3122R cells; hydrochloride): remained sensitive; also recorded: retain sensitivity

CO[C@H]1/C=C\C=C(/C)C(=O)NC2=CC(=O)C(N)=C(C[C@@H](C)C[C@H](OC)[C@H](O)[C@@H](C)/C=C(\C)[C@@H]1OC(N)=O)C2=O [IPI-493, 17-AG]
tumor growth inhibition ([2]; compared with gefitinib treatment alone): 61% | animals still on study ([2]; day 45): ~40%
